{"source": "patent US20240197712A1", "about": "“TGF-BETA INHIBITION FOR IMMUNODEFICIENCY VIRUS REACTIVATION FROM LATENCY, ENHANCEMENT OF IMMUNODEFICIENCY VIRUS-SPECIFIC RESPONSES AND IMMUNODEFICIENCY VIRUS CURE” (Northwestern University, priority 2022, published 2024)", "key": {"[1]": {"test_system": "pSMAD2/3", "assay": "PhosphoSMAD2/3 over total SMAD2/3 in PBMC (ELISA)", "type": "in vivo, rhesus macaques", "conditions": "2.5 or 5 mg/kg twice daily, 9 days", "description": "Eight naïve macaques (FIG. 9) were used to collect plasma and PBMC for PK/PD studies. 4 macaques received galunisertib (2.5 mg/kg, n=2 or 5 mg/kg, n=2) once and blood was collected at 1 hr, 3 hr and 6 hrs, 24 hrs and 48 hrs. 4 macaques received galunisertib (2.5 mg/kg, n=2 or 5 mg/kg, n=2) twice daily for 9 days and samples were collected 1 hr, 3 hr and 8 hrs after administration on day 1 and on day 9 right before and 1 hr and 3 and 6 hrs after the last administration. Plasma concentrations of galunisertib were measured by IMSERC (Integrated Molecular Structure Education and Research Center) utilizing liquid chromatography mass spectrometry (Shimadzu Kyoto, Japan ultra-high performance liquid chromatography—UHPLC—system and SCIEX Framingham, MA Qtrap 6500+ triple quadrupole mass spectrometer). […] All samples and standards were processed in duplicate with the average area under the curve (AUC) being used for quantitation reporting. […] The resulting limit of quantitation (LOQ) was 1.0 ng/ml.\nFor PD studies, the levels of phosphorylated SMAD2/3 were measured using the PathScan PhospoSMAD2/3 ELISA kit (Cell Signaling Technology, CST) over the levels of Total SMAD2/3 in cell lysates Total SMAD ELISA Kit (Cell Signaling Technology, CST) normalized on protein content."}, "[2]": {"test_system": "U1 cells", "assay": "PMA-induced HIV reactivation in U1 cells, intracellular p24 staining", "type": "cell-based", "description": "ACH2 cells and U1 cells were obtained through the NIH HIV Reagent Program, Division of AIDS, NIAID, NIH (contributed by Dr. Thomas Folks). Cells ([…]) were cultured in triplicates in RPMI with 10% FBS and Pen/Strep in presence of TGF-β1 (10 ng/ml R&D systems), TGF-β1 and galunisertib (1 μM MedChemExpress), galunisertib alone or mock treated. In the HIV latency reactivation conditions, PMA (Phorbol 12-myristate 13-acetate, SigmaAldrich) was added at 100 ng/ml together with galunisertib or TGF-β1. After 18 hrs, cells were stained intracellularly for p24 using the KC57 antibody (NIH HIV Reagent Program) as previously described (74)."}, "[3]": {"test_system": "SIVmac239 gag, pol and env peptides", "assay": "SIV-specific responses, FluoroSpot of PBMC", "type": "in vivo, rhesus macaques", "description": "Cytokines in plasma (at 1:2 dilution) were measured using the NHP Cytokine 24-Plex kit by Meso Scale Diagnostics (MSD) according to manufacturer instructions. Frozen PBMC collected at week 6 post-infection (pre-ART), right before the first galunisertib administration (BC1), at the end of cycle 1 (AC1) and at the end of cycle 3 (AC3) were thawed in AIM V medium (ThermoFisher) with benzonase (Sigma) and plated on a FluoroSpot (CTL) plate pre-activated with 70% Ethanol and IFN-γ, TNF-α and IL-2 capture solution. Gag, pol, and env 15-mer peptides (NIH AIDS Reagents program) were prepared at two times the final concentration of 2.5 μg/ml with co-stimulatory reagents anti-CD28 10 μg/ml and anti-CD49d 10 μg/ml and added to the cells in CTL-Test™ Medium. Parallel positive […] control of PMA (20 ng/ml) and ionomycin (200 ng/mL) or mock DMSO solution was also plated with the stimulatory reagents. PBMCs were added at 300,000 cells per well. After 24 hrs, the plate was washed, and incubated with detection and tertiary solutions and shipped to CTL for scanning and QC."}, "[4]": {"test_system": "SIVmac239M2", "assay": "Cell-associated vDNA in PBMC, colorectal biopsies and lymph nodes", "type": "in vivo, rhesus macaques", "description": "Blood was collected in EDTA tubes and plasma was separated by density gradient centrifugation and used for the determination of plasma VL by SIVgag qRT-PCR at NIRC or at Leidos (Quantitative Molecular Diagnostics Core, AIDS and Cancer Virus Program Frederick National Laboratory). Tissue VL from snap frozen PBMC pellets, colorectal biopsies and LN FNA were performed as described in (77). SIV-TILDA was performed on freshly stored PBMC before cycle 1 and at the end of cycle 4 of galunisertib by Accelevir, Baltimore, MD."}, "[5]": {"test_system": "SIVmac239 gag and env peptides", "assay": "Anti-SIV T cell responses, intracellular cytokine staining", "type": "in vivo, rhesus macaques", "conditions": "before vs after treatment", "description": "Frozen PBMC collected right before the first galunisertib administration and right after were thawed in AIM V medium (Thermo Fisher) plated on a plate pre-coated with 2.5 μg/ml goat anti mouse (GAM) IgGs and cross linked with 10 μg/ml anti-CD28 and anti-CD49d antibodies (Sigma Aldrich). Cells were stimulated either with SIVMAC239 GAG peptide pool (2 μg/ml) or with SIVMAC239 ENV peptide pool (2 μg/ml AIDS reagents program, Division of AIDS, NIAID, NIH) or the same volume of DMSO as baseline control. Pooled cells stimulated with 1 μg/ml PMA/Ionomycin were used a positive activation control. One hour later 10 μg/ml BFA and monensin (GolgiStop, BD Biosciences) were added to each well. After 5 hours, cells were transferred to a FACS plate and stained with the LIVE/DEAD Aqua viability dye (Thermo Fisher Scientific) and antibodies against cell surface and cytokines (Table 2)."}}, "data": [{"smiles": "Cc1cccc(-c2nn3c(c2-c2ccnc4ccc(C(N)=O)cc24)CCC3)n1", "note": "[galunisertib, Galunisertib]", "values": [{"measurement": "reduction in pSMAD2/3 over total SMAD in PBMC", "setting": "[1]", "result": "~25", "unit": "%"}, {"measurement": "frequency of p24-gag+ cells in unstimulated cultures", "setting": "[2]; U1 cells, no PMA, TGF-β1 10 ng/ml or galunisertib 1 μM alone", "result": "slightly increase"}, {"measurement": "frequency of p24-gag+ cells in the presence of exogenous TGF-β1", "setting": "[2]; U1 cells, TGF-β1 10 ng/ml + galunisertib 1 μM, with or without PMA", "result": "restores the frequency of p24-gag+ cells"}, {"measurement": "frequency of p24-gag+ cells in PMA-stimulated U1 cells", "setting": "[2]; galunisertib 1 μM alone, PMA 100 ng/ml", "result": "no impact"}, {"measurement": "IL-2 release", "setting": "[3]; end of 3rd cycle", "result": "remained unchanged"}, {"measurement": "IFN-γ secretion, SIV-specific and non-specific", "setting": "[3]; end of the 3rd cycle vs BC1", "result": "significant increase"}, {"measurement": "TNF-α release", "setting": "[3]; in response to Gag and non-specifically", "result": "increased"}, {"measurement": "cell-associated SIV DNA in lymph nodes, gut and PBMC", "setting": "[4]; 8 macaques, four 2-week cycles", "result": "Half to 1 Log decrease"}, {"measurement": "CA-vDNA decrease in gut, median", "setting": "[4]; BC1 (week 35 pi) vs AC4 (week 49 pi)", "result": 0.77, "unit": "folds"}, {"measurement": "CA-vDNA decrease in PBMC, range", "setting": "[4]; BC1 vs AC3", "result": "0.28-0.88 folds"}, {"measurement": "CA-vDNA decrease in gut, range", "setting": "[4]; BC1 vs AC4", "result": "0.33-0.94 folds"}, {"measurement": "CA-vDNA decrease in PBMC, median", "setting": "[4]; BC1 vs end of cycle 3 (AC3)", "result": 0.58, "unit": "folds"}, {"measurement": "cell-associated viral DNA in lymph nodes and colorectal biopsies", "setting": "[4]; Example 5, end of cycle 4 vs before Gal", "result": "decreased by over a Log"}, {"measurement": "CA-vDNA decrease in LN, median", "setting": "[4]; right axillary LN, BC1 vs AC4", "result": 0.93, "unit": "folds"}, {"measurement": "CA-vDNA decrease in LN, range", "setting": "[4]; right axillary LN, BC1 vs AC4", "result": "0.33-0.98 folds"}, {"measurement": "frequency of cells producing multiple cytokines", "setting": "[5]", "result": "no increase"}, {"measurement": "frequency of IFN-γ producing CD4 and CD8 T cells", "setting": "[5]; gag and env peptides stimulation", "result": "significant increase"}]}]}
